Legend:
[1] = target: T1, MDHWT (chloroplast NADP-malate dehydrogenase) (Arabidopsis thaliana, UniProt Q8H1E2); assay: NADPH oxidation monitored at […] nm, Michaelis-Menten fit; type: biochemical; settings: reduced enzyme (pretreated with Trx-f1 and DTT); 0-200 μM oxaloacetate, 100 μM NADPH, 0.01 μM MDH, pH 7.5, 50 mM NaCl, 25 °C
T1 construct: gene At5g58330; mature enzyme from Ser54 plus start Met (transit peptide removed), pET-23c, expressed in E. coli, purified with added size exclusion step
T1 sequence (Q8H1E2 54-443): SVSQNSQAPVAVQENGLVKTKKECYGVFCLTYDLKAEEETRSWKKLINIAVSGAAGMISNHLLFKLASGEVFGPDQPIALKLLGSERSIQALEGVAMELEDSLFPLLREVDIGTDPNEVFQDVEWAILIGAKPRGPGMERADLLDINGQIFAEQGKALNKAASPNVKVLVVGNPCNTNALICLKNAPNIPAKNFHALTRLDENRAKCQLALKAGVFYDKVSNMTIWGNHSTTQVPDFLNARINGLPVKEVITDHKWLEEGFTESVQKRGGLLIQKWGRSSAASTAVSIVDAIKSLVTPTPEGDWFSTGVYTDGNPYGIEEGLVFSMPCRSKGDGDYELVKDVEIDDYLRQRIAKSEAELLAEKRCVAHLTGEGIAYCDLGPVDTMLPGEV

[2] = target: T2, MDHΔC (Arabidopsis thaliana, UniProt Q8H1E2); assay: as above; type: biochemical; settings: reduced enzyme (pretreated with Trx-f1 and DTT); 0-200 μM oxaloacetate, 100 μM NADPH, 0.01 μM MDH, pH 7.5, 50 mM NaCl, 25 °C
T2 construct: gene At5g58330; mature enzyme from Ser54 plus start Met, C-terminal extension from Cys430 to C terminus deleted, pET-23c, expressed in E. coli
T2 sequence (Q8H1E2 54-429): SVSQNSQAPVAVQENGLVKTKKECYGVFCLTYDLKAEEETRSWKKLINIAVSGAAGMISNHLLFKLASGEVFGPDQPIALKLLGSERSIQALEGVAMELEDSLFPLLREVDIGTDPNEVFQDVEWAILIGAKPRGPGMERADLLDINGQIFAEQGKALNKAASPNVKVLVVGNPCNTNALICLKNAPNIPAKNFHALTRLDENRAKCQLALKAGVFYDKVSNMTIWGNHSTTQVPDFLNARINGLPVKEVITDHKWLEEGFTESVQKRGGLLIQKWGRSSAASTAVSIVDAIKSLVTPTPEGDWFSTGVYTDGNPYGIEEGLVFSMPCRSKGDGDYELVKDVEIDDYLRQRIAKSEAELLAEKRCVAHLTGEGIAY

O=C(O)CC(=O)C(=O)O [oxaloacetate]
NADPH oxidation monitored at 340 nm, Michaelis-Menten fit [1]: Activities of recombinant MDHWT and MDHΔC
NADPH oxidation monitored at 340 nm, Michaelis-Menten fit [2]: Activities of recombinant MDHWT and MDHΔC
